Measured values: patent US8993585B2, “Cyclic amine substituted pyrimidinediamines as PKC inhibitors” (Rigel Pharmaceuticals, Inc., priority 2007, dated 2015)

test system: Human primary T cells; assay: IL-2 ELISA, Human Primary T Cell, Anti-CD3+CD28+ (Example 3); assay type: cell-based; details: Homo sapiens, T-cell, 24 h, anti-CD3+CD28 stimulation
Procedure, shortened: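 Human primary T cells, 100,000 per well, were pre-incubated with compound in Yssel's medium for 1 h at 37 °C. The counter-assay used 0.5 ng/ml PMA with 0.1 uM ionomycin final.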

IC50 [nM] | Structure (SMILES)
4880 | CN1CCc2cc(Nc3ncc(F)c(NC4CC(C)(C)N(C)C(C)(C)C4)n3)ccc21 [II-51]
300 | COc1cc(Nc2ncc(F)c(NC3CC(C)(C)NC(C)(C)C3)n2)cc(OCCn2cccc2)c1 [Compound I-438]
3500 | COc1cc(Nc2ncc(OC)c(NC3CC(C)(C)N(C)C(C)(C)C3)n2)cc(OC)c1 [Compound I-423]
5930 | C#Cc1cnc(Nc2ccc3c(c2)OCCO3)nc1NC1CC(C)(C)N(C)C(C)(C)C1 [II-156]
967 | CN1C(C)(C)CC(Nc2nc(Nc3ccc4c(cnn4C)c3)ncc2F)CC1(C)C [II-39]
600 | COc1cc(O)cc(Nc2ncc(F)c(NC3CC(C)(C)N(C)C(C)(C)C3)n2)c1 [Compound I-436]
5220 | CC1(C)CC(Nc2nc(Nc3ccc4c(c3)OC(C)(C)O4)ncc2F)CC(C)(C)N1 [II-102]
4410 | CCN(CC)C1CCC(Nc2nc(Nc3ccc(N4CCN(C)CC4)c(Cl)c3)ncc2F)CC1 (stereo not shown) [IV-8, N2-[3-Chloro-4-(4-methylpiperazino)]phenyl-N4-(4-diethylamino)cyclohexyl-5-fluoro-2,4-pyrimidinediamine]
1370 | CN1C(C)(C)CC(Nc2nc(Nc3ccc4c(c3)OC(F)(F)O4)ncc2F)CC1(C)C [II-37]
17700 | COc1ccc(Nc2ncc(F)c(NC3CC(C)(C)N(CCC(=O)O)C(C)(C)C3)n2)cc1Cl [Compound I-303]

same assay, conditions: anti-CD3+CD28 stimulation, 24 hours

IC50 [nM] | Structure (SMILES)
491 | CN1C(C)(C)CC(Nc2nc(Nc3ccc(Br)c(F)c3)ncc2F)CC1(C)C [Compound I-110]
5800 | CCOC(=O)c1cnc(Nc2ccc(N3CCN(C)CC3)c(Cl)c2)nc1NC1CC(C)(C)N(C)C(C)(C)C1 [Compound I-89]
876 | CCc1cc(Nc2ncc(F)c(NC3CC(C)(C)N(C)C(C)(C)C3)n2)cc(C#N)c1Cl [Compound I-128]
101 | CN1C(C)(C)CC(Nc2nc(Nc3ccc4c(c3)OCC(=O)N4CC3CC3)ncc2F)CC1(C)C [II-77]
400 | COc1cc(F)cc(Nc2ncc(F)c(NC3CC(C)(C)N(C)C(C)(C)C3)n2)c1 [Compound I-443]
1530 | CC1CC(c2ccc(Nc3ncc(F)c(NC4CC(C)(C)N(C)C(C)(C)C4)n3)cc2)CC(C)O1 (stereo not shown) [Compound I-222]
971 | CN1C(C)(C)CC(Nc2nc(Nc3ccc(N4CCN(S(C)(=O)=O)CC4)c(C#N)c3)ncc2C#N)CC1(C)C [Compound I-196]
684 | CN1C(C)(C)CC(Nc2nc(Nc3ccc(Cl)c(C#N)c3)ncc2C(F)(F)F)CC1(C)C [Compound I-169]
3210 | COc1cc(Cl)c(Nc2ncc(F)c(NC3CC(C)(C)N(C)C(C)(C)C3)n2)cc1OC [Compound I-386]
750 | CN1C(C)(C)CC(Nc2nc(Nc3cccc(-c4cccnc4)c3)ncc2F)CC1(C)C [Compound I-107]
1570 | COc1cc(Nc2ncc(F)c(NC3CC(C)(C)N(C)C(C)(C)C3)n2)ccc1N1CCN(C)CC1 [Compound I-55]
3470 | COc1cc(Nc2ncc(C(N)=O)c(NC3CC(C)(C)NC(C)(C)C3)n2)cc(-n2nnnc2C)c1 [Compound I-387]
1850 | CN1CCN(c2ccc(Nc3ncc(F)c(NC4CC(C)(C)N(C)C(C)(C)C4)n3)cc2CO)CC1 [Compound I-63]
19500 | COc1cc(C)c(Nc2ncc(F)c(NC3CC(C)(C)N(C)C(C)(C)C3)n2)cc1OC [Compound I-380]
160 | Cc1nnnn1-c1cccc(Nc2ncc(F)c(NC3CC(C)(C)NC(C)(C)C3)n2)c1 [Compound I-414]
297 | CN1C(C)(C)CC(Nc2nc(Nc3ccc(OCCN4CCOCC4)c(Cl)c3)ncc2F)CC1(C)C [Compound I-368]
2010 | CN1CCN(C(=O)c2ccc(Nc3ncc(F)c(NC4CC(C)(C)N(C)C(C)(C)C4)n3)cc2Cl)CC1 [Compound I-44]

same assay, conditions: anti-CD3+CD28 stimulation, 24 hours, citrate salt

IC50 [nM] | Structure (SMILES)
118 | COc1ccc(Nc2ncc(F)c(NC3CC(C)(C)N(C)C(C)(C)C3)n2)cc1OC(F)F [Compound I-359]
